The values below come from ChEMBL document CHEMBL1154380, “Lipocarbazoles, secondary metabolites from Tsukamurella pseudospumae Acta 1857 with antioxidative activity” (J Nat Prod, 2009).

Usually IC50 stands for the concentration at which inhibition is half-maximal.

Calls of active or inactive are those of the source. The calls are words filed in the database; no cut-off is given here.

In one test the test system is Pseudomonas fluorescens. Description: Antibacterial activity against Pseudomonas fluorescens DSM 50090 at 1 mg/ml after 24 hrs by disk diffusion assay. In kind it is functional, organism-based. In general terms: In agar diffusion tests the substance spreads into inoculated agar from a disc or well.
The next test concerns Brevibacillus brevis. Description: Antibacterial activity against Brevibacillus brevis DSM 30 at 1 mg/ml after 24 hrs by disk diffusion assay. In kind it is functional, organism-based.
The subject of another test is Proteus mirabilis. Description: Antibacterial activity against Proteus mirabilis ATCC 35501 at 1 mg/ml after 24 hrs by disk diffusion assay. In kind it is functional, organism-based.
The next test concerns Candida albicans. Put plainly: Antifungal activity against Candida albicans Tu 164 at 1 mg/ml after 48 hrs by disk diffusion assay. The class given is functional, organism-based.
The next test concerns Staphylococcus aureus. Description: Antibacterial activity against Staphylococcus aureus DSM 20231 at 1 mg/ml after 24 hrs by disk diffusion assay. In kind it is functional, organism-based.
For test [1], the system named is Streptomyces viridochromogenes. Put plainly: Antibacterial activity against Streptomyces viridochromogenes Tu 57 at 1 mg/ml after 24 hrs by disk diffusion assay. In kind it is functional, organism-based.
Test [2] concerns Paenarthrobacter aurescens. Description: Antibacterial activity against Arthrobacter aurescens DSM 20166 at 1 mg/ml after 24 hrs by disk diffusion assay. In kind it is functional, organism-based.
Another test deals with Escherichia coli. Description: Antibacterial activity against Escherichia coli K-12 at 1 mg/ml after 24 hrs by disk diffusion assay. The class given is functional, organism-based.
The subject of the next test is Penicillium chrysogenum. Put plainly: Antifungal activity against Penicillium notatum Tu 136 at 1 mg/ml after 48 hrs by disk diffusion assay. In kind it is functional, organism-based.
A further test concerns Botrytis cinerea. Put plainly: Antifungal activity against Botrytis cinerea Tu 157 at 1 mg/ml after 48 hrs by disk diffusion assay. In kind it is functional, organism-based.
Another test relates to Saccharomyces cerevisiae. Description: Antifungal activity against Saccharomyces cerevisiae ATCC 9080 at 1 mg/ml after 48 hrs by disk diffusion assay. In kind it is functional, organism-based.
A further test concerns Bacillus subtilis. Put plainly: Antibacterial activity against Bacillus subtilis DSM 10 at 1 mg/ml after 24 hrs by disk diffusion assay. In kind it is functional, organism-based.
The subject of test [3] is Radical scavenging activity. Put plainly: Antioxidant activity assessed as DPPH radical scavenging activity after 30 mins. The class given is functional. In general terms: DPPH is a stable violet radical that fades when it is reduced.

Turning to `CCCCC/C=C\C/C=C\CCCCCCCc1c(C)c(O)cc2c1[nH]c1ccccc12`, the outcome (in the test on Pseudomonas fluorescens; in the test on Brevibacillus brevis; in the test on Proteus mirabilis; with Candida albicans; with Staphylococcus aureus; in test [1]) was inactive. Also, the outcome (in [2]; with Escherichia coli; in the test on Penicillium chrysogenum; with Botrytis cinerea; in the test on Saccharomyces cerevisiae; with Bacillus subtilis) was inactive.

For the compound `CCCOC(=O)c1cc(O)c(O)c(O)c1` [PROPYL GALLATE], the IC50 in test [3] stood at 4.4 µM.

Regarding `CC/C=C\C/C=C\C/C=C\CCCCCCCc1c(C)c(O)cc2c1[nH]c1ccccc12`, the outcome (in the test on Pseudomonas fluorescens; in the test with Brevibacillus brevis; in the test with Proteus mirabilis; in the test with Candida albicans; with Staphylococcus aureus; in test [1]) was inactive. The result (in [2]; with Escherichia coli; in the test with Penicillium chrysogenum; in the test on Botrytis cinerea; with Saccharomyces cerevisiae; in the test with Bacillus subtilis) was inactive.

Consider `O=C1O[C@H]([C@@H](O)CO)C(O)=C1O` [ASCORBIC ACID], for which the IC50 in test [3] was found to be 13.4 µM.

On to `CCCCCCCCCCCCCCCCCc1c(C)c(O)cc2c1[nH]c1ccccc12`, for which the outcome (in the test with Pseudomonas fluorescens; in the test on Brevibacillus brevis; with Proteus mirabilis; with Candida albicans; in the test with Staphylococcus aureus; in test [1]) was inactive. Besides, the outcome (in [2]; in the test on Escherichia coli; in the test on Penicillium chrysogenum; in the test with Botrytis cinerea; with Saccharomyces cerevisiae; in the test with Bacillus subtilis) was inactive. Also, the IC50 in test [3] turned out to be 10.5 µM.

Turning to `CCCCCCCC/C=C\CCCCCCCc1c(C)c(O)cc2c1[nH]c1ccccc12` [LIPOCARBAZOLE A3], the outcome (in the test with Pseudomonas fluorescens; with Brevibacillus brevis; in the test with Proteus mirabilis; in the test with Candida albicans; with Staphylococcus aureus; in test [1]) was inactive. The result (in [2]; with Escherichia coli; with Penicillium chrysogenum; in the test on Botrytis cinerea; with Saccharomyces cerevisiae; in the test on Bacillus subtilis) was inactive. Besides, the IC50 in test [3] amounted to 8.7 µM.
